Measurements reported in patent US5834259A, “Process and composition for preparing D-aspartic acid” (Monsanto Company, priority 1996, dated 1998).

Target: T1, L-aspartate-α-decarboxylase (Escherichia coli, UniProt P0A790)
T1 construct: expressed in transfected cells; host or cells: E. coli W3110 transformed with pIF309 = strain NS3291 (ATCC 98675), whole cells
Test: Activity towards D/L-glutamate and D/L-alanine, D/L-aspartate as control (Example 8)
Format: biochemical, E. coli K12
Conditions: racemate substrate, pH 7.0
Method: D/L-aspartate was run as a control.
Substrates were prepared by dissolving solid amino acid racemate in approximately 75 ml deionized H2 O and adjusting the pH to 7.0 with 10N NaOH. The volume was then brought to 100 ml with deionized H2 O. The cells used were stored frozen for about 1 month and then thawed and stored in a refrigerator for about 1 month prior to running the experiments.
The reaction was run the same as described in the prior Examples. Samples of supernatant fluid, approximately 0.20 ml, were removed over time, centrifuged and stored frozen before analysis by HPLC as described in the prior Examples.

| Compound | concentration in supernatant fluid (0 hr) [mg/mL] | concentration in supernatant fluid (3.5 hr) [mg/mL] | percent remaining (3.5 hr) [%] | concentration in supernatant fluid (8.5 hr) [mg/mL] | percent remaining (8.5 hr) [%] | concentration in supernatant fluid (24 hr) [mg/mL] | percent remaining (24 hr) [%] | concentration in supernatant fluid (55 hr) [mg/mL] | percent remaining (55 hr) [%] |
| --- | --- | --- | --- | --- | --- | --- | --- | --- | --- |
| N[C@H](CCC(=O)O)C(=O)O [D-Glu] | 29.440 | 29.010 | 98.539 | 29.520 | 100.27 | 29.350 | 99.694 | 29.840 | 101.36 |
| C[C@@H](N)C(=O)O [D-Ala] | 19.190 | 18.590 | 96.873 | 18.370 | 95.727 | 17.930 | 93.434 | 17.580 | 91.610 |
| N[C@@H](CCC(=O)O)C(=O)O [L-Glu] | 29.350 | 28.400 | 96.763 | 28.740 | 97.922 | 28.200 | 96.082 | 28.000 | 95.400 |
| C[C@H](N)C(=O)O [L-Ala] | 19.320 | 18.960 | 98.137 | 18.730 | 96.946 | 18.320 | 94.824 | 17.830 | 92.288 |
